Assay results taken from PMC4415393, “Immobilized laccase mediated dye decolorization and transformation pathway of azo dye acid red 27” (Journal of Environmental Health Science and Engineering, 2015).

Tests used:
[1] = biological target: T1, PVA-nitrate immobilized laccase (Cyathus bulleri, UniProt A8W7J6); test: Laccase assay with inhibitors and ABTS kinetics, immobilized enzyme; format: biochemical; settings: 1 h pre-incubation
T1 sequence (A8W7J6 17-513): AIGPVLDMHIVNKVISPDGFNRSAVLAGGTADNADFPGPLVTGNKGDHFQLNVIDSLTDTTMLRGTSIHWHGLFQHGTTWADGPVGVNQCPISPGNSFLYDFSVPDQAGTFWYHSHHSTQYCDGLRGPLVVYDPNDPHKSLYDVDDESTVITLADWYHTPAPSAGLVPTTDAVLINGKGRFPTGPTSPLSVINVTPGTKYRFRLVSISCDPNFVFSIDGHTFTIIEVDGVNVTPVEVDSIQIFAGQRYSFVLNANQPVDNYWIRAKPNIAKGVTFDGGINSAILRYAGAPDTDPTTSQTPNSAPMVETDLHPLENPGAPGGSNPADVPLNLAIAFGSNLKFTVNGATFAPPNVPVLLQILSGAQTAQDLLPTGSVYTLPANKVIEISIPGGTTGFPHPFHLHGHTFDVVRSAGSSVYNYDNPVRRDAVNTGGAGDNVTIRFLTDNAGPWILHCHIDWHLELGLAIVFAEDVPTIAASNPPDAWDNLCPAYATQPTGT

Free laccase = biological target: T2, Free laccase (Cyathus bulleri, UniProt A8W7J6); test: Laccase assay with inhibitors and ABTS kinetics, free enzyme; format: biochemical; settings: 1 h pre-incubation
T2 sequence (A8W7J6 17-513): T1 sequence (A8W7J6 17-513)

Which results are given for `[N-]=[N+]=[N-]` [sodium azide]?
IC50 [1]: 6 ± 0.3 µM; IC50 (Free laccase): 5 ± 0.5 µM
